The test concerns the target T1, interaction between rDIII and proteins of hBMECs (West Nile virus, UniProt P06935).
T1 construct: rDIII – recombinant domain III; made in house; host or cells: E. coli M15
T1 sequence (P06935 584-692 limits assumed): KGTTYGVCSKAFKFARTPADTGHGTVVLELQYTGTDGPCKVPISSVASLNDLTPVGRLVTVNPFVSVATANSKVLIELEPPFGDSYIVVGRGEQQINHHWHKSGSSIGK
The experiment in a line: Blocking of interaction between rDIII and proteins of hBMECs by peptides (ELISA). Format: binding, West Nile virus / human. How it is done: First, concentration-dependent ELISA and Western blot were performed to get the minimum concentration of rDIII required to show its interaction with hBMECs proteins. Details are presented in Supplementary Method S12 and Supplementary Method S13. Subsequently, the ability of 7-mer and 12-mer peptides to block the interaction between rDIII and proteins of hBMECs was tested. A tenfold molar excess of peptides was incubated with rDIII for 1 h at room temperature. Such pre-incubated rDIII was subsequently used in the assays. Details of both methods are described in Supplementary Method S12 and Supplementary Method S13. […]
Blocking of interaction between rDIII and proteins of hBMECs by peptides (ELISA). First, different concentrations of rDIII were tested to get the minimum concentration of rDIII required to show the interaction with hBMECs proteins. Protein extract of hBMECs (4 μg/well) diluted in coating buffer (0.5 M Na2CO3, 0.5 M NaHCO3; pH 9.5) was incubated in the microtiter wells for overnight at 4°C. Unbound hBMECs proteins were washed with PBS (pH 7.3) containing 0.05% Tween 20 (0.05% PBST) and non-specific binding sites were blocked with 0.5% BSA in 0.05% PBST. rDIII at different concentrations (5 µg, 2.5 µg, 2 µg, 1 µg, 500 […]
ng, 250 ng, 125 ng, and 62.5 ng) diluted in 0.05% PBST was added into wells and incubated for 3 h at room temperature and constant shaking. Wells were washed 3 times with 0.05% PBST and incubated with HisProbe-HRP conjugate (1:5,000 dilution in 0.1% BSA in 0.05% PBST; Thermo Fisher Scientific) for 30 min at room temperature and constant shaking. […] The reaction was stopped after 25 min with 2 M H2SO4 and the absorbance was measured at 450 nm. […]
After blocking, the wells were washed 3 times with 0.05% PBST, pre-incubated rDIII was added and incubated for 3 h at room temperature with constant shaking. […] The reaction was stopped after 25 min with 2 M H2SO4 and the absorbance was measured at 450 nm. hBMECs proteins incubated with untreated rDIII were used as a positive control. […]
Background: In an ELISA, binding on a coated surface is turned into a signal by an enzyme label.

Consider `CC[C@H](C)[C@@H]1NC(=O)[C@@H](NC(=O)[C@H](C)N)CSSC[C@@H](C(=O)NCC(=O)NCC(=O)NCC(=O)N[C@@H](CO)C(=O)O)NC(=O)[C@H](C)NC(=O)[C@H](CCCNC(=N)N)NC(=O)[C@H]([C@@H](C)O)NC(=O)[C@H](CO)NC(=O)[C@H](CO)NC(=O)[C@H](Cc2c[nH]cn2)NC1=O` [CP4, CIHSSTRAC], for which the “A450, rDIII binding to hBMECs proteins after pre-incubation with peptide” value (pre-incubated with tenfold molar excess (1.5 nM) of peptide, positive control A450 = 1.064) was 0.346. In addition, the “inhibition of the interaction between rDIII and hBMECs proteins” value (rDIII 0.15 nM pre-incubated with tenfold molar excess (1.5 nM) of peptide, ELISA) is on record as 67%.
